# Reference: patent US12209087B2, “AKT1 modulators” (Alterome Therapeutics, Inc., priority 2022, dated 2025)
# Target: T1, full length AKT E17K (Homo sapiens, UniProt P31749, E17K)
# T1 construct: host or cells: HEK-293 (ATCC CRL-1573)
# Assay: NanoBRET Target Engagement (TE) Assay
# Type: cell-based
# Settings: competitive tracer displacement in living cells, read-out: AKT1 E17K IC50
# Description: The NanoBRET™ Target Engagement (TE) Intracellular Kinase Assays are based on the NanoBRET™ System (Promega Corporation), an energy transfer technique designed to measure molecular proximity in living cells. The NanoBRET™ TE Assays measure the apparent affinity of test compounds by competitive displacement of the NanoBRET™ tracer compound, which is a cell permeable molecule engineered to be reversibly bound to a NanoLuc® luciferase-kinase fusion expressed in cells. For compound screening, when a test compound binds to the selected kinase, the BRET signal is attenuated. […] All cells were evaluated for viability prior to transfection and optimization of the transfection was done prior to experimentation. […] Following transfection, cells were washed and resuspended in Opti-MEM. NanoBRET assays were performed in white, 384-well plates (Corning) at a density of […]. All example compounds were prepared as concentrated stock solutions in DMSO (Sigma-Aldrich). Compounds are dissolved in DMSO to make 10 mM stock solution. […] A Labcyte ECHO 550 compound dispenser was used to facilitate compound transfer directly to cells. Cells were equilibrated for 2 hr with energy transfer probes and example compound prior to BRET measurements. […] For target engagement analysis, the energy transfer probes were added to the cells at concentrations optimized for the target in question (AKT E17K). Following compound incubation, NanoBRET NanoGlo Substrate (Promega Cat #N157D) and Extracellular Nanoluc Inhibitor (Promega Cat #N235C) was added according to the manufacturer's recommended protocol, and luminescence was measured on Envision Reader (Perkin Elmer) Multimode Luminometer equipped with 450 nm BPfilter (donor) and 600 nm LPfilter (acceptor), using 0.5 s integration time. Milli-BRET units (mBU) are calculated by multiplying the raw BRET values by 1000. Apparent tracer affinity values (EC50) were determined using the sigmoidal dose-response (variable slope).
# Competitive displacement data were then plotted and data were fit to determine the EC50 value for each example compound.
# T1 sequence (P31749 whole entry E17K): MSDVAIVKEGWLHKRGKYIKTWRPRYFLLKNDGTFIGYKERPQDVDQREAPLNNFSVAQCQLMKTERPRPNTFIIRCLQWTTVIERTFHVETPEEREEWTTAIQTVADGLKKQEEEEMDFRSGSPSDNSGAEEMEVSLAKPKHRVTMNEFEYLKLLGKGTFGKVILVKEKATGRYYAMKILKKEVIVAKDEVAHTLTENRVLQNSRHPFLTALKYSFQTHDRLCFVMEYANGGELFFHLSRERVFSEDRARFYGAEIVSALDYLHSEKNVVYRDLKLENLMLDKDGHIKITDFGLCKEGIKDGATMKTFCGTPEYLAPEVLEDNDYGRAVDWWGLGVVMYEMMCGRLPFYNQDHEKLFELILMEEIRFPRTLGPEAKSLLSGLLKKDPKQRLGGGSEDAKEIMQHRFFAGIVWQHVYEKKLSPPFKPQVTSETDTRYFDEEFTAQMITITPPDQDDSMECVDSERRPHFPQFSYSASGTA
row,Compound,IC50
1,"N#Cc1cccnc1C(=O)NC1CCN(Cc2ccc(-n3c(-c4cccnc4N)nc4cccnc43)cc2)CC1 [Example 28, N-(1-(4-(2-(2-Aminopyridin-3-yl)-3H-imidazo[4,5-b]pyridin-3-yl)benzyl)piperidin-4-yl)-3-cyanopicolinamide]",600 to 10000 nM
2,"N#Cc1ccncc1C(=O)NC1CCN(Cc2ccc(-n3c(-c4cccnc4N)nc4cccnc43)cc2)CC1 [Example 29, N-(1-(4-(2-(2-Aminopyridin-3-yl)-3H-imidazo[4,5-b]pyridin-3-yl)benzyl)piperidin-4-yl)-4-cyanonicotinamide]",600 to 10000 nM
3,"N#Cc1cccc(C(=O)NC2CCN(Cc3ccc(-n4c(-c5cccnc5N)nc5cccnc54)cc3)CC2)n1 [Example 30, N-(1-(4-(2-(2-Aminopyridin-3-yl)-3H-imidazo[4,5-b]pyridin-3-yl)benzyl)piperidin-4-yl)-6-cyanopicolinamide]",600 to 10000 nM
4,"N#Cc1ccnc(C(=O)NC2CCN(Cc3ccc(-n4c(-c5cccnc5N)nc5cccnc54)cc3)CC2)c1 [Example 31, N-(1-(4-(2-(2-Aminopyridin-3-yl)-3H-imidazo[4,5-b]pyridin-3-yl)benzyl)piperidin-4-yl)-4-cyanopicolinamide]",600 to 10000 nM
5,"N#Cc1nccc(C(=O)NC2CCN(Cc3ccc(-n4c(-c5cccnc5N)nc5cccnc54)cc3)CC2)n1 [Example 32, N-(1-(4-(2-(2-Aminopyridin-3-yl)-3H-imidazo[4,5-b]pyridin-3-yl)benzyl)piperidin-4-yl)-2-cyanopyrimidine-4-carboxamide]",60 to 600 nM
6,"N#Cc1cc(C(=O)NC2CCN(Cc3ccc(-n4c(-c5cccnc5N)nc5cccnc54)cc3)CC2)ncn1 [Example 33, N-(1-(4-(2-(2-Aminopyridin-3-yl)-3H-imidazo[4,5-b]pyridin-3-yl)benzyl)piperidin-4-yl)-6-cyanopyrimidine-4-carboxamide]",600 to 10000 nM
7,"N#Cc1nc2cc(C(=O)NC3CCN(Cc4ccc(-n5c(-c6cccnc6N)nc6cccnc65)cc4)CC3)ccc2s1 [Example 34, N-(1-(4-(2-(2-aminopyridin-3-yl)-3H-imidazo[4,5-b]pyridin-3-yl)benzyl)piperidin-4-yl)-2-cyanobenzo[d]thiazole-5-carboxamide]",60 to 600 nM
8,"N#Cc1nc2cc(F)cc(C(=O)NC3CCN(Cc4ccc(-n5c(-c6cccnc6N)nc6cccnc65)cc4)CC3)c2s1 [Example 35, N-(1-(4-(2-(2-Aminopyridin-3-yl)-3H-imidazo[4,5-b]pyridin-3-yl)benzyl)piperidin-4-yl)-2-cyano-5-fluorobenzo[d]thiazole-7-carboxamide]",60 to 600 nM
9,"N#Cc1cnccc1C(=O)NC1CCN(Cc2ccc(-n3c(-c4cccnc4N)nc4cccnc43)cc2)CC1 [Example 36, N-(1-(4-(2-(2-Aminopyridin-3-yl)-3H-imidazo[4,5-b]pyridin-3-yl)benzyl)piperidin-4-yl)-3-cyanoisonicotinamide]",600 to 10000 nM
10,"CC(=O)Nc1cccc(-c2ccc3nc(-c4cccnc4N)n(-c4ccc(CN5CCN(c6ccnc(C#N)c6)CC5)cc4)c3n2)c1 [Example 37, N-(3-(2-(2-Aminopyridin-3-yl)-3-(4-((4-(2-cyanopyridin-4-yl)piperazin-1-yl)methyl)phenyl)-3H-imidazo[4,5-b]pyridin-5-yl)phenyl)acetamide]",15 to 60 nM
11,"CC(=O)Nc1cccc(-c2ccc3nc(-c4cccnc4N)n(-c4ccc(CN5CCN(c6ccc(C#N)nc6)CC5)cc4)c3n2)c1 [Example 38, N-(3-(2-(2-Aminopyridin-3-yl)-3-(4-((4-(6-cyanopyridin-3-yl)piperazin-1-yl)methyl)phenyl)-3H-imidazo[4,5-b]pyridin-5-yl)phenyl)acetamide]",60 to 600 nM
12,"CC(=O)Nc1cccc(-c2ccc3nc(-c4cccnc4N)n(-c4ccc(CN5CCN(c6cccc(C#N)n6)CC5)cc4)c3n2)c1 [Example 39, N-(3-(2-(2-Aminopyridin-3-yl)-3-(4-((4-(6-cyanopyridin-2-yl)piperazin-1-yl)methyl)phenyl)-3H-imidazo[4,5-b]pyridin-5-yl)phenyl)acetamide]",60 to 600 nM
